Laboratory results as given in patent US20230407296A1, “Method to Regulate ALOX12-AS1 IncRNA-Mediated Alteration of ALOX12 Protein and to Screen for Novel Drugs to Alter ALOX12 Protein Level” (priority 2021, published 2023).
d = 2'-deoxy (DNA); m = 2'-O-methyl

Key:
ALOX12 = target: T1, ALOX12 (Homo sapiens, UniProt P18054); conditions: cited from earlier work
T1 sequence (P18054 1-663): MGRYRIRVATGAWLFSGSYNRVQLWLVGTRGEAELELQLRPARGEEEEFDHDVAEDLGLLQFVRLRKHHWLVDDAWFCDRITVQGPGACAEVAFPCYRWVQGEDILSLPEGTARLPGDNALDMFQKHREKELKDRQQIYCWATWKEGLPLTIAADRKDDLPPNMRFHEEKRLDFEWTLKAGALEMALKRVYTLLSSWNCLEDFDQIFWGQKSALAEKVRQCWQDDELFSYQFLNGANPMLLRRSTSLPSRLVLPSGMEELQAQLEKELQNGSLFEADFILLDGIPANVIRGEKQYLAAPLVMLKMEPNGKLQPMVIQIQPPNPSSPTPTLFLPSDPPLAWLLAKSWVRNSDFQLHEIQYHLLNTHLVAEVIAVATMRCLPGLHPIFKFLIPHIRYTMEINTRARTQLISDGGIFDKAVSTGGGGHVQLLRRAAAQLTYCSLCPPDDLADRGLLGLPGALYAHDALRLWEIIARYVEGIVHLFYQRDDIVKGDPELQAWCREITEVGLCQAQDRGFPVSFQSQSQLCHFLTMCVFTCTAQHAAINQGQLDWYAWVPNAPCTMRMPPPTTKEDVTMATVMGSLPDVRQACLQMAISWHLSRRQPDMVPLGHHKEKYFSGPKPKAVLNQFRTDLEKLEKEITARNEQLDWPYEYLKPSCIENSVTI

ALOX12 mRNA [1] = conditions: HepG2 cells; cited from earlier work
ALOX12 mRNA [2] = test: ALOX12 mRNA level in HEK293 cells (multiplex RT-PCR / qPCR); type: cell-based, human
Text: HEK293 cells were transiently transfected with plasmids expressing ALOX12-AS1-201/202 to study lncRNA-mediated suppression of ALOX12. […] The nucleo-cytoplasmic abundance of ALOX12-AS1 lncRNA may be tightly regulated in HEK293 cells. Therefore, increased transcription of the transfected plasmids in the nucleus may not ensure higher levels of the lncRNAs in the cytoplasm, which may be a requisite for suppression of ALOX12. To overcome this limitation, HEK293 cells were transfected with in vitro transcribed ALOX12-AS1-201/202 mRNAs to ensure high cytoplasmic abundance of the antisense lncRNAs. […]
(§1) Total RNA from different cell lines was extracted with Trizol reagent (Catalog number: 15596026; ThermoFisher Scientific, Canada) as per the manufacturer's recommended protocol. […] Absolute quantification of ALOX12-AS1 lncRNA isoforms was performed in a Mastercycler®ep realplex real-time PCR system (Eppendorf, Hamburg, Germany) using SYBR green dye (Catalog number: S7563; ThermoFisher Scientific). […] Real-time PCR data quality control calculations were determined by the SAS program as described previously and the calculated PCR efficiency was between 95%-99%. Quantitative RT-PCR was conducted for different cell-line derived RNAs, and the specificity of each amplified product was confirmed by melting curve analysis. Results were expressed as copy number of specific isoforms per 100 ng of total RNA.

[3] = tested on: ALOX12 protein level in HEK293 cells; test: ALOX12 protein level in HEK293 cells (immunoblot); type: cell-based, human
Method: Relative quantification of proteins was performed as described previously [35, 106]. The cell lysates were prepared in 1×RIPA lysis and extraction buffer (catalogue number: 89900, ThermoFisher Scientific) supplemented with 1× Halt protease and phosphatase inhibitor cocktail (catalogue number: 78441, ThermoFisher Scientific). The protein lysates were denatured in Laemmli buffer containing 2% SDS, 10% glycerol, 0.002% bromophenol blue, 0.75 M Tris-HCl pH 6.8, and 100 mM DTT. The immunoblots were imaged using a ChemiDoc XRS+ system (Bio-Rad) and band intensities were quantified using ImageJ (version 1.48) Software [107]. Due to the possibility of inconsistency in the relative expression of housekeeping genes, we normalized all proteins of interest based on the intensity of the Oriole-stained protein profile [92].

ALOX12-AS1-201 = ALOX12-AS1-201 level in ASO-transfected HEK293 cells (multiplex RT-PCR / qPCR); type: cell-based, human
Method: (§2) Small interfering RNA (siRNA)-mediated knockdown of ALOX12-AS1 in HEK293 cells was ineffective possibly because of the nuclear localization of the lncRNA. As an alternative approach, multiple isoform-specific oligonucleotides (ASOs) complementary to different regions of ALOX12-AS1-201/202 were designed (FIG. 7A-C).
(§3) Three ALOX12-AS1-202-specific ASOs were designed and two of them (ASO-2 and -3) reduced ALOX12-AS1-202 mRNA levels within 24 hours of transfection (FIGS. 7L&O, red rectangle).
as §1

ALOX12-AS1-202 = ALOX12-AS1-202 level in ASO-transfected HEK293 cells (multiplex RT-PCR / qPCR); type: cell-based, human; conditions: HEK293, ALOX12-AS1-201-targeted ASO, 24 hours after transfection, quantitative PCR
Method: as §2, §3, §1

Compound: O=c1cc(-c2ccccc2)oc2cc(O)c(O)c(O)c12 [baicalein, 5,6,7-Trihydroxyflavone]
- inhibition of ALOX12 (ALOX12): can be inhibited
- selectivity for ALOX12 over other ALOXs (ALOX12; inhibits other ALOXs): not selective for ALOX12

Compound: CCCCCCCC/C=C/CCCCCCCC(=O)O [elaidic acid]
- reduction of ALOX12 mRNA expression (ALOX12 mRNA [1]): 1.8 fold

Compound: mA*mG*mA*mA*mC*T*G*T*C*A*A*T*A*A*T*mC*mU*mU*mA*mC (antisense AGAACTGTCAATAATCUUAC; sugars from the 5' end m5 d10 m5, all phosphorothioate, methylation of C not given here) [ASO-4, ALOX12-AS1-201-targeted gapmer ASO]
- ALOX12 mRNA level (ALOX12 mRNA [2]; HEK293, ALOX12-AS1-201-targeted ASO, 24 hours after transfection, quantitative PCR): unchanged
- ALOX12 mRNA levels (ALOX12 mRNA [2]; HEK293, ALOX12-AS1-201-targeted ASOs, multiplex RT-PCR): relatively unaltered
- ALOX12 protein level ([3]; HEK293, ALOX12-AS1-201-targeted ASO, 24 hours after transfection, quantified immunoblot): significantly reduced
- ALOX12 protein level ([3]; HEK293, ALOX12-AS1-201-targeted ASOs, immunoblot): dramatically reduced
- ALOX12-AS1-201 isoform level (ALOX12-AS1-201; HEK293, 24 hours after transfection, quantitative PCR): significant reduction
- knockdown of ALOX12-AS1-201 (ALOX12-AS1-201; HEK293, ALOX12-AS1-201-targeted ASOs, within 24 hours of transfection, multiplex RT-PCR): ~27%
- ALOX12-AS1-202 isoform level (ALOX12-AS1-202): significant reduction
